Assay results as given in patent US20070039241A1, “Floatable granular substrate for culturing plant material” (GSF - Forschungszentrum fur Umwelt und Gesundheit, priority 2003, published 2007).

System: barley seedlings
Experiment: Heavy metal uptake of barley seedlings on floating culture substrate or agar substrate (ICP-MS of leaves and roots)
Format: in vivo, Hordeum vulgare cv. Barke
Details: for Concentration of heavy metal ions in barley seedlings, Shoot, Agar: grown on agar; for Concentration of heavy metal ions in barley seedlings, Shoot, Agar / Concentration of heavy metal ions in barley seedlings, Root, Floatable Substrate / Concentration of heavy metal ions in barley seedlings, Shoot, Floatable Substrate: 6 day old plants; for Concentration of heavy metal ions in barley seedlings, Root, Floatable Substrate / Concentration of heavy metal ions in barley seedlings, Shoot, Floatable Substrate: grown on floatable substrate; for Factor by which concentration in the roots was increased compared to shoot tissue: seedlings grown on floatable substrate
Description: MS-basal Medium or Hoagland's medium was supplemented with heavy metals as follows: stock solutions of Hg Cl2 (0.1 M) or Cd(NO3)2•4H2O (0.1 M) were applied to the autoclaved medium when it had cooled to about 55° C. such that final heavy metal-ion concentrations of 10, 20, 30 and 40 μM were obtained.
Agar culturing substrate was prepared by adding 1.5 wt/vol % agar (Sigma) to Hoagland's or MS-basal medium. After heating to 100° C., respective amounts of heavy metal salts were added when the medium had cooled down to […]. Then the mixture was poured into Phytotray II™ culture vessels (Sigma) and left to cool for subsequent use.
Barley caryopses prepared and seeded onto a floatable substrate layer as in Example 1. Alternatively, the caryopses were directly placed on culturing agar as described above.
Seedlings were grown as described, and leaves and roots of 6 day old plants were harvested and weighed to determine the fresh weight. Samples were shock-frozen in liquid nitrogen and stored at −80° C.
Total mercury and cadmium content of leaves and roots was determined by electrothermal vaporization inductively coupled plasma-mass spectrometry (Michalke et al., 1997).

Row | Compound | Concentration of heavy metal ions in barley seedlings, Shoot, Agar (added concentration 10 μM) [µM] | Concentration of heavy metal ions in barley seedlings, Shoot, Agar (added concentration 20 μM) [µM] | Concentration of heavy metal ions in barley seedlings, Shoot, Agar (added concentration 30 μM) [µM] | Concentration of heavy metal ions in barley seedlings, Shoot, Agar (added concentration 40 μM) [µM] | Concentration of heavy metal ions in barley seedlings, Root, Floatable Substrate (added concentration 10 μM) [µM] | Concentration of heavy metal ions in barley seedlings, Shoot, Floatable Substrate (added concentration 10 μM) [µM] | Concentration of heavy metal ions in barley seedlings, Root, Floatable Substrate (added concentration 20 μM) [µM] | Concentration of heavy metal ions in barley seedlings, Shoot, Floatable Substrate (added concentration 20 μM) [µM] | Concentration of heavy metal ions in barley seedlings, Root, Floatable Substrate (added concentration 30 μM) [µM] | Concentration of heavy metal ions in barley seedlings, Shoot, Floatable Substrate (added concentration 30 μM) [µM] | Concentration of heavy metal ions in barley seedlings, Root, Floatable Substrate (added concentration 40 μM) [µM] | Concentration of heavy metal ions in barley seedlings, Shoot, Floatable Substrate (added concentration 40 μM) [µM] | Factor by which concentration in the roots was increased compared to shoot tissue
1 | O.O.O.O.O=[N+]([O-])[O-].O=[N+]([O-])[O-].[Cd+2] [Cd^2+, Cd(NO3)2•4H2O] | 15 | 21 | 41 | 53 | 479 | 4 | 1270 | 27 | 1450 | 27 | 2880 | 59 | 60
2 | [Cl][Hg][Cl] [Hg^2+, Hg Cl2] | 62 | 171 | 254 | 252 | 697 | 54 | 851 | 144 | 2060 | 239 | 2430 | 296 | 10
